# Values of other authors, collected in patent publication US20250339420A1, “ANILINE-DERIVATIVE-CONTAINING EXTERNAL PREPARATION FOR SKIN” (KINOPHARMA, INC., priority 2022, published 2025).
# How the values were obtained:
# [1] = system: E6 and E7 genes of human papillomavirus (HPV)
structure (smiles),measurement,setting,value
"Fc1ccc(N2CCCCC2)c(NC(=S)c2ccncc2)c1 [Compound I-a, N-[5-fluoro-2-(1-piperidinyl)phenyl]-4-pyridinethioamide]",effect on p53 gene,p53 gene,stabilizes p53 gene
same,antiviral activity against papillomavirus,papillomavirus,exhibits antiviral activity
same,expression of E6 and E7 genes of human papillomavirus (HPV),[1],suppresses expression
